Laboratory results from ChEMBL document CHEMBL5260813, “An overview on the recent developments of 1,2,4-triazine derivatives as anticancer compounds” (Eur J Med Chem, 2017).
Converted amounts (≈) assume the structure as drawn.

Legend:
HT-29 [1] = experiment: Antiproliferative activity against human HT-29 cells assessed as inhibition of cell growth under hypoxia condition by SRB assay; type: functional, cell-based
SCC-7 [2] = experiment: Anticlonogenic activity against mouse SCC-7 cells assessed as inhibition of colony formation under aerobic condition by clonogenic survival assay; type: functional
HT-29 [3] = experiment: Antiproliferative activity against human HT-29 cells assessed as inhibition of cell growth under normoxia condition by SRB assay; type: functional, cell-based
SCC-7 [4] = experiment: Anticlonogenic activity against mouse SCC-7 cells assessed as inhibition of colony formation under hypoxic condition by clonogenic survival assay; type: functional
[5] = target: Vascular endothelial growth factor receptor 2 (Homo sapiens, UniProt P35968); experiment: Inhibition of VEGFR-2 (unknown origin)
[6] = target: T1, Tyrosine-protein kinase SYK (Homo sapiens, UniProt P43405); experiment: Inhibition of human SYK using 5-Fluo-Ahx-GAPDYENLQELNKK-Amid as substrate in presence of ATP by microfluidic mobility shift assay
[7] = target: T1, Tyrosine-protein kinase SYK; experiment: Inhibition of SYK in human Ramos cells assessed as reduction in anti IgM-induced phosphorylation of BLNK by flow cytometry assay; type: cell-based
HT-29 [8] = experiment: Antiproliferative activity against human HT-29 cells assessed as inhibition of cell growth by SRB assay; type: functional, cell-based
HT-29 [9] = experiment: Potency index, ratio of tirapazamine IC50 to compound IC50 for antiproliferative activity against human HT-29 cells; type: functional
[10] = target: Cyclin-dependent kinase 2/cyclin E1 (Homo sapiens, UniProt P24941); experiment: Inhibition of CDK2/cyclin E1 (unknown origin) expressed in Sf9 cells
[11] = target: T2, Tyrosine-protein kinase JAK3 (Homo sapiens, UniProt P52333); experiment: Inhibition of JAK3 (unknown origin)
T2 sequence (P52333 whole entry): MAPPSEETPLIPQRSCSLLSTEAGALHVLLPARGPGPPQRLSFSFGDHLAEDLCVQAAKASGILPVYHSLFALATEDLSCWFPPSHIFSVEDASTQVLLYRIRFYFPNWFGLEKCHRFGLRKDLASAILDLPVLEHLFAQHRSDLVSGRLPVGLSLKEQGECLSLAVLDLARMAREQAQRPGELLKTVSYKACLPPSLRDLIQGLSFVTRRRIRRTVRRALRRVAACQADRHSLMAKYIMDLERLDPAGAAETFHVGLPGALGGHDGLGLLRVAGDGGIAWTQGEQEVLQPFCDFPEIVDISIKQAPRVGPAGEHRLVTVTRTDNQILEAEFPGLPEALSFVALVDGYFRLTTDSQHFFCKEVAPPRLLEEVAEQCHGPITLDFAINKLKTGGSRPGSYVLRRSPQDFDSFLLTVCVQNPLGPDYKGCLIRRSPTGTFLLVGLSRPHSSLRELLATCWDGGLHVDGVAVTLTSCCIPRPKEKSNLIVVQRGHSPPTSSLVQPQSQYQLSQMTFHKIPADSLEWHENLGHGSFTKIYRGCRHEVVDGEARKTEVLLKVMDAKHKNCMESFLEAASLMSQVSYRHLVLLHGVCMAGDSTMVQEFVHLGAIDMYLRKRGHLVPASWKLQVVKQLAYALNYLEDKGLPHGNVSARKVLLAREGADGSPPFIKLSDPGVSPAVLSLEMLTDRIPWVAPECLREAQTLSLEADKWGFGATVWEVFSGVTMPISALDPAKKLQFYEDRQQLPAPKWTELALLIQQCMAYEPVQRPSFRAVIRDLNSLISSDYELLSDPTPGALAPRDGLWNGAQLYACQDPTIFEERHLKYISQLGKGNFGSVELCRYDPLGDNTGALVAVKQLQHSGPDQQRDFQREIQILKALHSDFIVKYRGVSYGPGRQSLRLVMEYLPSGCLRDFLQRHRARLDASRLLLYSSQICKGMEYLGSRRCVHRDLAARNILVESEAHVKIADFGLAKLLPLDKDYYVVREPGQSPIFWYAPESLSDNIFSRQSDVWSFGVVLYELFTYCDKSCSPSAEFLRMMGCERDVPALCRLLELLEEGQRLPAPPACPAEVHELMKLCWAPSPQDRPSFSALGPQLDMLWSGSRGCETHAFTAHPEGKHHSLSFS

[12] = target: Tyrosine-protein kinase JAK2 (Homo sapiens, UniProt O60674); experiment: Inhibition of JAK2 (unknown origin)
HCT-116 = experiment: Antiproliferative activity against human HCT-116 cells assessed as inhibition of cell growth; type: functional, cell-based
MCF7 = experiment: Antiproliferative activity against human MCF7 cells assessed as inhibition of cell growth; type: functional, cell-based

Chain of Tyrosine-protein kinase JAK2 (O60674 whole entry): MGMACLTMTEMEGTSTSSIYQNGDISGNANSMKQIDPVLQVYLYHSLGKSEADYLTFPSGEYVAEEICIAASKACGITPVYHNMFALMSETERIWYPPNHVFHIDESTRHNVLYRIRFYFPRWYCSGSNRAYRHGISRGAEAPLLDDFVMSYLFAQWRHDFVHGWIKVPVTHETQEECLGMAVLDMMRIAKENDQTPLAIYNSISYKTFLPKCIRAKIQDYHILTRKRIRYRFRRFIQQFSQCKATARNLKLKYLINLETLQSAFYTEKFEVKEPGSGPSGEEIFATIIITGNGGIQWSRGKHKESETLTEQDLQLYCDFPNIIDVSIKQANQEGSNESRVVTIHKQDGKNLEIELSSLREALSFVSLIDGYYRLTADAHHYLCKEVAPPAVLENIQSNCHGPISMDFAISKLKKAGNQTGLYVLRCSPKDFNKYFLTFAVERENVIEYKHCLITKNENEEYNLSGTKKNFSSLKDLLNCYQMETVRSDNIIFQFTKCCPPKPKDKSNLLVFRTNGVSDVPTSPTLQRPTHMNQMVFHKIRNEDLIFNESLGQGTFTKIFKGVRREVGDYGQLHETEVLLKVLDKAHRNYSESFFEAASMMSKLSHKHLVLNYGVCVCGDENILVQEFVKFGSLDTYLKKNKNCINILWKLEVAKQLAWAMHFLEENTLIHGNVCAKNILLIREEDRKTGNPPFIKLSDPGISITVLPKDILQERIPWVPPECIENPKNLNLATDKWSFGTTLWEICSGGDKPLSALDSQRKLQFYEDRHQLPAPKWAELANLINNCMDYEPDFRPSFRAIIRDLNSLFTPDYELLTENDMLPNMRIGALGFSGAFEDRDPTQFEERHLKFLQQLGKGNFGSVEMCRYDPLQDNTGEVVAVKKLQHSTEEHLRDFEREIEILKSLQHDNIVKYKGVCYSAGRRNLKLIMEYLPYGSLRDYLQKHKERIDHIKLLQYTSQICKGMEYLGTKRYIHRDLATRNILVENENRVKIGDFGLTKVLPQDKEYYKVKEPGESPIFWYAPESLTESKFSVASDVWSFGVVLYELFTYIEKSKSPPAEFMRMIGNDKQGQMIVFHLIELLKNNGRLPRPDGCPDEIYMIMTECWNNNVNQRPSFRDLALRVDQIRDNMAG
Chain of Vascular endothelial growth factor receptor 2 (P35968 whole entry): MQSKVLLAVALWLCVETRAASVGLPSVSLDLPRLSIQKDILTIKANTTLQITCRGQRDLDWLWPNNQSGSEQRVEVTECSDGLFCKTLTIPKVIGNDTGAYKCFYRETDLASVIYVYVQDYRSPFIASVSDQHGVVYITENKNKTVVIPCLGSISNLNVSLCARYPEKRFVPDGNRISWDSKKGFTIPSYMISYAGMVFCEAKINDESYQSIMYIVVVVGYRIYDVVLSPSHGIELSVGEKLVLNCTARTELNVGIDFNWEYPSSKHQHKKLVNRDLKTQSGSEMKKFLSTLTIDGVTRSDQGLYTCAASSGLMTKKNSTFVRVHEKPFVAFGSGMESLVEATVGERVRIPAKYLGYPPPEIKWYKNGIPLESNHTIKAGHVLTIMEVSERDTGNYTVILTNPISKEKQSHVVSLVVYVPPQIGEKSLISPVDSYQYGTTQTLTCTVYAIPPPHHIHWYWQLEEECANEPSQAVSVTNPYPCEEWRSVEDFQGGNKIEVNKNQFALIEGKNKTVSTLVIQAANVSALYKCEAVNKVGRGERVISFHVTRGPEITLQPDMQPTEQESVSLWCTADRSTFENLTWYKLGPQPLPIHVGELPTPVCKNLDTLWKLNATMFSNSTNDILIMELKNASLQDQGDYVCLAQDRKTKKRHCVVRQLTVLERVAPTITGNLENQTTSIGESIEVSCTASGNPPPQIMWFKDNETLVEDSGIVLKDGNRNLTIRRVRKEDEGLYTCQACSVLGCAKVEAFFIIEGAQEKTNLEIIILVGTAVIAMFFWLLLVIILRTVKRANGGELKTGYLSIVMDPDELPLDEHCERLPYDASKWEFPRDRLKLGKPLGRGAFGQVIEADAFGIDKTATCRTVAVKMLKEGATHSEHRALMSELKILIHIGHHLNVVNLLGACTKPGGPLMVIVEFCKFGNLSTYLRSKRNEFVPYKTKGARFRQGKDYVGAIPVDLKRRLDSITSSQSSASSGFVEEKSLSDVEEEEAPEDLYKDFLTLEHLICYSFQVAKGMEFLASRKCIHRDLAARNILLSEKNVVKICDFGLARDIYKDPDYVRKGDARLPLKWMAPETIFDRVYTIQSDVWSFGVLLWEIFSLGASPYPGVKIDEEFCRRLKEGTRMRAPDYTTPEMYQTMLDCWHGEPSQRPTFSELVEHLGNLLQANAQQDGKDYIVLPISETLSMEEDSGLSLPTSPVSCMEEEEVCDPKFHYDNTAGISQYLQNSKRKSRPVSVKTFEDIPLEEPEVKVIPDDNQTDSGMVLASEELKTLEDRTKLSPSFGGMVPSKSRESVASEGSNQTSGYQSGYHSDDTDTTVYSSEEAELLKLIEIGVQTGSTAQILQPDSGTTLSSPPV

Structure (SMILES) | IC50 (HT-29 [1]) | C10 (SCC-7 [2]) | IC50 (HT-29 [3]) | C10 (SCC-7 [4]) | other results
O=C(NCCNCCNc1n[n+]([O-])c2ccccc2[n+]1[O-])c1cccc2cc3ccccc3nc12 | 16 nM | 6.4 µM | 600 nM | 0.18 µM | 
Cc1cccc2nc3cccc(C(=O)NCCCN(C)CCCNc4n[n+]([O-])c5ccccc5[n+]4[O-])c3nc12 | 16 nM | 6.4 µM | 600 nM | 0.18 µM | 
CN(CCCNC(=O)c1cccc2ccc(-c3ccncc3)nc12)CCCNc1n[n+]([O-])c2ccccc2[n+]1[O-] | 16 nM | 6.4 µM | 600 nM | 0.18 µM | 
O=C(NCCOCCNc1n[n+]([O-])c2ccccc2[n+]1[O-])c1cccc2cc3ccccc3nc12 | 16 nM | 6.4 µM | 600 nM | 0.18 µM | 
CN(CCNC(=O)c1cccc2cc3ccccc3nc12)CCNc1n[n+]([O-])c2ccccc2[n+]1[O-] | 16 nM | 6.4 µM | 600 nM | 0.18 µM | 
CN(CCCNC(=O)c1cccc2cccnc12)CCCNc1n[n+]([O-])c2ccccc2[n+]1[O-] | 16 nM | 6.4 µM | 600 nM | 0.18 µM | 
CN(CCCNC(=O)c1cccc2nc3ccccc3nc12)CCCNc1n[n+]([O-])c2ccccc2[n+]1[O-] | 16 nM | 6.4 µM | 600 nM | 0.18 µM | 
Cc1ccc(Nc2ncnn3c(C)ccc23)cc1O |  |  |  |  | IC50 [5]: 29400 nM
NC(=O)c1nnc(N[C@@H]2CCCC[C@@H]2N)nc1Nc1cccc2[nH]ccc12 |  |  |  |  | IC50 [6]: 0.8 nM
Cc1cccc2cc3cccc(C(=O)NCCCN(C)CCCNc4n[n+]([O-])c5ccccc5[n+]4[O-])c3nc12 | 16 nM | 6.4 µM | 600 nM | 0.18 µM | 
CN(CCCNC(=O)c1cccc2cc3ccccc3nc12)CCCNc1n[n+]([O-])c2ccccc2[n+]1[O-] | 16 nM | 6.4 µM | 600 nM | 0.18 µM | 
NC(=O)c1nnc(N[C@@H]2CCCC[C@@H]2N)nc1Nc1cccc2c(Cl)c[nH]c12 |  |  |  |  | IC50 [7]: 14 nM; IC50 [6]: 0.8 nM
NC(=O)c1nnc(N[C@@H]2CCCC[C@@H]2N)nc1Nc1cc(F)cc2cc[nH]c12 |  |  |  |  | IC50 [7]: 14 nM; IC50 [6]: 0.8 nM
Cc1c[nH]c2c(Nc3nc(N[C@@H]4CCCC[C@@H]4N)nnc3C(N)=O)cccc12 |  |  |  |  | IC50 [7]: 14 nM; IC50 [6]: 0.8 nM
Cn1ncc2c(Nc3nc(N[C@@H]4CCCC[C@@H]4N)nnc3C(N)=O)cccc21 |  |  |  |  | IC50 [7]: 14 nM; IC50 [6]: 0.8 nM
NC(=O)c1nnc(N[C@@H]2CCCC[C@@H]2N)nc1Nc1cccc2[nH]ncc12 |  |  |  |  | IC50 [7]: 14 nM; IC50 [6]: 0.8 nM
Cc1c[nH]c2c(Nc3nc(N[C@@H]4CCCC[C@@H]4N)nnc3C(N)=O)cc(F)cc12 |  |  |  |  | IC50 [7]: 14 nM
O=C(NCCCNCCCNc1n[n+]([O-])c2ccccc2[n+]1[O-])c1cccc2cc3ccccc3nc12 | 16 nM | 6.4 µM | 600 nM | 0.18 µM | 
Nc1nc2ccccc2[n+]([O-])n1 |  |  |  |  | IC50 (HT-29 [8]): > 500 nM; Ratio IC50 (HT-29 [9]): 2
Oc1ccc(-n2nc(-c3cc(O)c(O)c(O)c3)c3nc(-c4ccc(Cl)cc4)nnc32)cc1 |  |  |  |  | IC50 [10]: > 20000 nM
Oc1cc(-c2nn(-c3ccc(Cl)cc3)c3nnc(-c4ccc(Cl)cc4)nc23)cc(O)c1O |  |  |  |  | IC50 [10]: > 20000 nM
Oc1ccc(-n2nc(-c3cc(O)c(O)c(O)c3)c3nc(-c4ccccc4)nnc32)cc1 |  |  |  |  | IC50 [10]: 14100 nM
CC(C)C(Nc1cnnc(-c2c[nH]c3ncc(F)cc23)n1)C(=O)NCC(C)(C)C (centres undefined) |  |  |  |  | IC50 [11]: ≤ 10 nM; IC50 [12]: ≤ 10 nM
COc1cc(Cc2nc(-c3ccccc3)nn3cnnc23)cc(OC)c1OC |  |  |  |  | IC50 (HCT-116): 0.74 µg/mL (≈ 1.96 µM); IC50 (MCF7): 0.74 µg/mL (≈ 1.96 µM)
N#CCNc1nc2ccccc2[n+]([O-])n1 |  |  |  |  | IC50 (HT-29 [8]): > 300 nM; Ratio IC50 (HT-29 [9]): 1.9
Oc1ccccc1-n1nc(-c2cc(O)c(O)c(O)c2)c2nc(-c3ccc(Cl)cc3)nnc21 |  |  |  |  | IC50 [10]: > 20000 nM
CC(C)C(Nc1cnnc(-c2c[nH]c3ncc(Cl)cc23)n1)C(=O)NCC(C)(C)C (centres undefined) |  |  |  |  | IC50 [11]: ≤ 10 nM; IC50 [12]: ≤ 10 nM
CC(C)(C)CNC(=O)C(C)(C)Nc1cnnc(-c2c[nH]c3ncc(F)cc23)n1 |  |  |  |  | IC50 [11]: ≤ 10 nM; IC50 [12]: ≤ 10 nM
